Where two headings read alike, the source gives them in different places.
Key:
muscarinic receptors = type: binding; settings: rat cortex, [3H]QNB; average of three determinations
DA-3 receptors = molecular target: T1, DA-3 receptors (Rattus norvegicus, UniProt P19020); assay: [3H]-7-OH-DPAT binding to DA-3 receptors (rat olfactory tubercle); settings: for Ki: [3H]-7-OH-DPAT, average ± standard error
T1 construct: olfactory tubercle for DA-3 receptors; from tissue; host or cells: rat olfactory tubercle membranes

[1] = test system: 5-MeO-DMT-induced head twitches in mouse; assay: Antagonism of 5-MeO-DMT-induced head twitches in mouse; type: in vivo; settings: s.c., 30 min before 5-MeO-DMT 10 mg/Kg s.c.
DA-2 receptors = molecular target: T2, DA-2 receptors (Rattus norvegicus, UniProt P61169); assay: [3H]Spiperone binding to DA-2 receptors (rat striatum); settings: stereoselectivity between enantiomers
T2 construct: striatum for DA-1 and DA-2 receptors; from tissue; host or cells: rat striatum membranes

catalepsy in rats = settings: male, Wistar, rat, in vivo, sc
DA-1 receptors = molecular target: T3, DA-1 receptors (Rattus norvegicus, UniProt P18901); assay: [3H]SCH 23390 binding to DA-1 receptors (rat striatum); settings: for Ki: [3H]SCH 23390, average ± standard error, read-out: D1 affinity Ki
T3 construct: striatum for DA-1 and DA-2 receptors; from tissue; host or cells: rat striatum membranes
T3 sequence (P18901 whole entry): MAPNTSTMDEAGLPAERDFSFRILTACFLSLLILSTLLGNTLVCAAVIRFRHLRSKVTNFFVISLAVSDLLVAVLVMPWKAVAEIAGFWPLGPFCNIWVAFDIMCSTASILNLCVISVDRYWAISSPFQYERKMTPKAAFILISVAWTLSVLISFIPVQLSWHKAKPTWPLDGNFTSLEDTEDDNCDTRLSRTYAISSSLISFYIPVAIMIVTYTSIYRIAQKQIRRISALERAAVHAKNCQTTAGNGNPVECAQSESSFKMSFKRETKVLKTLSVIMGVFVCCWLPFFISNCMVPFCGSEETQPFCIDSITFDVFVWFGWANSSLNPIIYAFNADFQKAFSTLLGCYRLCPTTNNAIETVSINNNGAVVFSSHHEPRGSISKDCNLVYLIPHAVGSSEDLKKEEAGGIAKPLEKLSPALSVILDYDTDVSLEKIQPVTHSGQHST

T1 sequence (P19020 whole entry): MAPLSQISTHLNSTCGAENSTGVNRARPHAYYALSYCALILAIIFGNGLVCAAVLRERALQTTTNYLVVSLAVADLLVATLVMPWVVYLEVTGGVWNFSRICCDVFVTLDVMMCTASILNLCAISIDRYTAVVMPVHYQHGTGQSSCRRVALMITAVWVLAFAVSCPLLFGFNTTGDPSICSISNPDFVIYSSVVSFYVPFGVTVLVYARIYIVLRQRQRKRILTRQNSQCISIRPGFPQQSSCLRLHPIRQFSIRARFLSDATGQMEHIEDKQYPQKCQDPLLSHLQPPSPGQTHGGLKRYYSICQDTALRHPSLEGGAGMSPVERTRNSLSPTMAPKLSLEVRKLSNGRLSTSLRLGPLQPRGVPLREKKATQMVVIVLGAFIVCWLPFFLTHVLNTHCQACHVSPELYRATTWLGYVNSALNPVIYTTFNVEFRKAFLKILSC
T2 sequence (P61169 whole entry): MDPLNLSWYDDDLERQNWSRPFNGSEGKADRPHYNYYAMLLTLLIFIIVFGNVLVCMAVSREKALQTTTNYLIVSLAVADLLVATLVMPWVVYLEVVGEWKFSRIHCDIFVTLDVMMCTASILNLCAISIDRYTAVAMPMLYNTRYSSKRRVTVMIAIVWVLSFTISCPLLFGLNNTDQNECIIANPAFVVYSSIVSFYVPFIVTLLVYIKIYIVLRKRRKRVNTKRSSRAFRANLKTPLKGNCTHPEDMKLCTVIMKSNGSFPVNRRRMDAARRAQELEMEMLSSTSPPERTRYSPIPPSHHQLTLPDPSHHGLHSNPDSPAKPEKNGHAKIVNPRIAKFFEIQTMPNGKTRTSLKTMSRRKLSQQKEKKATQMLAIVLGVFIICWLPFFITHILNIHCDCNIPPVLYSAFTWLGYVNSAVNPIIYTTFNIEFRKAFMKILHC

Compound | Ki (muscarinic receptors) [µM] | D3 pKi (DA-3 receptors) | Ki (DA-3 receptors; read-out: D3 affinity Ki) [µM] | Dosage that determines 50% of the Head-twitching inhibition induced by 5-MeO-DMT [1] [mg/kg] | Times less affinity for the D2 receptor than the opposite enantiomer (DA-2 receptors) | Time in minutes of insurgence of catalepsy in 100% of the animals (catalepsy in rats) [min] | D1 pKi (DA-1 receptors) | Ki (DA-1 receptors) [µM] | Ki (DA-3 receptors; D3 affinity Ki) [µM]
CN1CCN(C2Cn3cccc3Sc3ccc(Cl)cc32)CC1 (racemic) [ST1455, (±)-7-chloro-9-(4-methylpiperazin-1-yl)-9,10-dihydropyrrolo[2,1-b][1,3]benzothiazepine] | 0.418 |  |  |  |  |  |  |  | 
CN1CCN(C2Cn3cccc3Sc3ccc(F)cc32)CC1 (racemic) [ST1456, (±)-7-fluoro-9-(4-methylpiperazin-1-yl)-9,10-dihydropyrrolo[2,1-b][1,3]benzothiazepine] | 2.22 |  |  |  |  |  |  |  | 
CN1CCN(C2Cn3cccc3Sc3ccc(Cl)cc32)CC1 (single isomer, unassigned) [ST1461] | 0.514 |  |  |  |  |  |  |  | 
CN1CCN(C2Cn3cccc3Sc3ccc(Cl)cc32)CC1 (single isomer, unassigned; (+)) [ST1460, (+)-7-chloro-9-(4-methylpiperazin-1-yl)-9,10-dihydropyrrolo[2,1-b][1,3]benzothiazepine] | 0.286 |  |  |  |  |  |  |  | 
CN1CCN([C@@H]2Cc3ccccc3Sc3ccc(Cl)cc32)CC1 [R-(−)-Octoclothepin] | 0.155 | 7.68 | 0.0209 | 0.089 | approximately 10 times | 120 | 8.69 | 0.00202 ± 0.00017 | 
CN1CCN(C2Cc3ccccc3Sc3ccc(Cl)cc32)CC1 (centres unmarked) [RS-Octoclothepin, 8-chloro-10-(4-methylpiperazino)-10,11-dihydrodibenzo[b,f]thiepin] | 0.434 | 8.62 | 0.00238 |  |  | 120 | 8.64 | 0.00228 ± 0.00015 | 
CN1CCN([C@H]2Cc3ccccc3Sc3ccc(Cl)cc32)CC1 [S-(+)-Octoclothepin] | 0.749 |  |  |  |  | 300 | 8.71 | 0.00197 ± 0.00053 | 0.00075
